Source: ChEMBL document CHEMBL1147626, “Determination of the stable conformation of GABA(A)-benzodiazepine receptor bivalent ligands by low temperature NMR and X-ray analysis” (Bioorg Med Chem Lett, 2004)

Target: T1, GABA-A receptor; alpha-3/beta-3/gamma-2 (Homo sapiens, UniProt P18507+P28472+P34903)
T1 sequence (P18507 whole entry): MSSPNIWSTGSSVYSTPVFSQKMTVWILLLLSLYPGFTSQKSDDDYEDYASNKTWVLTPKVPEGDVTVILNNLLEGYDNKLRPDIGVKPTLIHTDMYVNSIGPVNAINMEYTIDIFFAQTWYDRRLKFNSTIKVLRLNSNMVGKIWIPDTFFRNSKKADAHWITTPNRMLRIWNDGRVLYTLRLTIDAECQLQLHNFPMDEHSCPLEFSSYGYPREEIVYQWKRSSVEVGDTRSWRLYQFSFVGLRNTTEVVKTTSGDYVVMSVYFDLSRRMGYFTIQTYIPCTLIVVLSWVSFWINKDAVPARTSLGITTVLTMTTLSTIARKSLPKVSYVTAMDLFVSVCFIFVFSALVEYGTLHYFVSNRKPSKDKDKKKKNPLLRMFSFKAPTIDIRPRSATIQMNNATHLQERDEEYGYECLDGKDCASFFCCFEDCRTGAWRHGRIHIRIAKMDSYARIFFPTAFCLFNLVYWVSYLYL
T1 sequence (P28472 whole entry): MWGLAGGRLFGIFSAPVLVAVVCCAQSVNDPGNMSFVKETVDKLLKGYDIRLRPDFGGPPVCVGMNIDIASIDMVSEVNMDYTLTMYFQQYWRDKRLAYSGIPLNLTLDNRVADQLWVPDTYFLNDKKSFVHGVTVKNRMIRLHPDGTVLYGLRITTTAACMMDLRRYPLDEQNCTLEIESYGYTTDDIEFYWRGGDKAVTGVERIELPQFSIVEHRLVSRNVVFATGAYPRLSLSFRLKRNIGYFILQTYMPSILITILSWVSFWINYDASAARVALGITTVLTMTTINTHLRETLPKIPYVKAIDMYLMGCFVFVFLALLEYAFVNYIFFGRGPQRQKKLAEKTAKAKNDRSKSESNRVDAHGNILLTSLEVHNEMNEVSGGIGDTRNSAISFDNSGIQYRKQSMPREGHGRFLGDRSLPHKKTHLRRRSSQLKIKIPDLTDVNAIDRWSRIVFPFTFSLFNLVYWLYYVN
T1 sequence (P34903 whole entry): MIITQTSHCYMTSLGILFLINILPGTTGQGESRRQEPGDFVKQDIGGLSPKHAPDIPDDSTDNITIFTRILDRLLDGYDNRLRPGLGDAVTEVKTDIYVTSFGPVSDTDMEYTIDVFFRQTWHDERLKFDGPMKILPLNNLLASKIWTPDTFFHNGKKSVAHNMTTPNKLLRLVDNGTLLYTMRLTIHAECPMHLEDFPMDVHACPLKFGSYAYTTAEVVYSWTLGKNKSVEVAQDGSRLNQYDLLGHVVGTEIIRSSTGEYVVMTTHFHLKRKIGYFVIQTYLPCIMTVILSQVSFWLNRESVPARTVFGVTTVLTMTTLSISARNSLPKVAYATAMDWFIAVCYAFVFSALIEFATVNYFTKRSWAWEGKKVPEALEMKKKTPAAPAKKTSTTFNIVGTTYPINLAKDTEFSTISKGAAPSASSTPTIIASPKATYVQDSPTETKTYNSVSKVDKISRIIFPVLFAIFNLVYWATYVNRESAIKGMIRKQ
Experiment: In vitro inhibition of [3H]-Ro- 15-1788 binding to human GABA-A receptor alpha-3-beta-3-gamma-2 subunits expressed in L(tk-)cells
Assay type: cell-based

`C#Cc1ccc2c(c1)C(=O)N(C)Cc1c(C(=O)OCCCOC(=O)c3ncn4c3CN(C)C(=O)c3cc(C#C)ccc3-4)ncn1-2` was tested, and the Ki was 858 nM.
